The results in this text go back to publication PMC8570591 (ACS catalysis, 2021).

This assay concerns the target T1, EanB (Chlorobium limicola, UniProt B3ECE3).
T1 sequence (B3ECE3 1-457): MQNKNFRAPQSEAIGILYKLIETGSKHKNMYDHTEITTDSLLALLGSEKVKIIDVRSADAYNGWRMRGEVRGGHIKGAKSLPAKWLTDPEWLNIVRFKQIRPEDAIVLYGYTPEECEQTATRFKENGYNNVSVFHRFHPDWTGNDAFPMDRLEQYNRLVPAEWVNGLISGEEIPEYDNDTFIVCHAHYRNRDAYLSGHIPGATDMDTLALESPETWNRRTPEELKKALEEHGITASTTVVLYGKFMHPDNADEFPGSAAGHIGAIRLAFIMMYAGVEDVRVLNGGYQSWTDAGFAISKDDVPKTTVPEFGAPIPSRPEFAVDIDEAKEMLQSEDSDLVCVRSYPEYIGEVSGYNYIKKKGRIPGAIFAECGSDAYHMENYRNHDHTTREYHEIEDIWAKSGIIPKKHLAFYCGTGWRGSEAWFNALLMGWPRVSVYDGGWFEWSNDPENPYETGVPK
Kind of assay: hercynine epsilon-C-H/D2O exchange kinetics by LC-MS, purified enzyme. The format is biochemical.

For `C[N+](C)(C)[C@@H](Cc1cnc[nH]1)C(=O)[O-]` [compound 2, hercynine], the Kd was 161 ± 18.6 µM.
